Reference: patent US11465965B2, “Double-headed protease inhibitor” (UBE INDUSTRIES, LTD., priority 2017, dated 2022)
Structures can show the parent of a compound that is named as a salt. Where two headings read alike, the source gives them in different places.

Assays:
[1] = target: T1, Human recombinant trypsin (Homo sapiens, UniProt P07477); test: Human trypsin inhibition test; format: biochemical; conditions: 20 minutes after reaction start, read-out: Inhibition rate (trypsin); for inhibition at 0.01 µM: compound concentration 10 nM; for inhibition at 0.1 µM: compound concentration 100 nM; for inhibition at 0.001 µM: compound concentration 1 nM
T1 construct: purchased Wako Pure Chemical Industries, Ltd. 206-17171
Method: (Test Example 2): Human Trypsin Inhibition Test
Human recombinant trypsin (manufactured by Wako Pure Chemical Industries, Ltd., code no.: 206-17171) was diluted with an assay buffer (0.1 M Tris-HCl (pH8.0), 0.15 M NaCl, 10 mM CaCl2, 0.05% Brij35) to prepare a 10 ng/mL enzyme solution. Then, Boc-Phe-Ser-Arg-MCA (manufactured by PEPTIDE INSTITUTE, INC., code no.: 3107-v) was diluted with the assay buffer to prepare a 40 μM substrate solution. Each test compound was dissolved into DMSO, then diluted with the assay buffer 100 times, and further appropriately diluted with an assay buffer comprising 1% DMSO to prepare each compound solution. 10 μL of the compound solution, 15 μL of the assay buffer, and 50 μL of the substrate solution were added to a 96 well black plate (manufactured by Thermo Fisher Scientific Inc., code no.: 9502867), mixed, and then 25 μL of the enzyme solution was added thereto, and mixed to start the reaction. Fluorescence intensities at excitation wavelength 355 nm and fluorescence wavelength of 460 nm were measured by using a fluorescence plate reader (Flex station 3) (Test compound addition group). Also, the same reaction as described above except for not adding each test compound was carried out (Test compound non-addition group). Additionally, the same reaction as described above except for not adding each test compound and the enzyme was carried out (Control group). Inhibition rate was calculated by the following equation using fluorescence intensity after 20 minutes of reaction start. Inhibition rate (%)=(1−(fluorescence intensity of Test compound addition group−fluorescence intensity of Control group)[…](fluorescence intensity of Test compound non-addition group−fluorescence intensity of Control group))×100

HFD-fed mouse = test: Fecal protein concentration-increasing test by single administration using HFD-fed mouse; format: in vivo; conditions: 24 h, HFD-fed mice, vs vehicle group, read-out: Ratio for an increase of protein concentration in feces; for response vs control in vivo at 30 mg/kg: single oral dose 30 mg/kg
From the text: (Test Example 3): Fecal Protein Concentration-Increasing Test by Single Administration Using HFD-Fed Mouse
High fat diet-fed (HFD-fed) mice (D-12492 diet, male, ICR, 6 week old) were orally administered with a 0.5 W/V % methylcellulose suspension comprising each test compound (Compound administration group, 4 or 5 mice/group) or a 0.5 W/V % methylcellulose suspension (Compound non-administration group (Vehicle group), 5, 6, or 7 mice/group), and whole feces of the day were collected. Dried feces were dissolved into a 0.5N aqueous sodium hydroxide solution, followed by centrifugation at 3500 rpm. Then each protein concentration in the resulting supernatant was determined (Lowry method), and the ratio for an increase of protein concentration in feces was calculated by the following equation using the protein concentration in feces contained in 1 g of feces (mg/g feces). Ratio for an increase of protein concentration in feces−(average protein concentration in feces of Compound administration group)[…](average protein concentration in feces of Compound non-administration group)

[2] = target: T2, Human recombinant enteropeptidase (Homo sapiens, UniProt P98073); test: Human enteropeptidase inhibition test; format: biochemical; conditions: read-out: Inhibition rate (enteropeptidase); for inhibition at 0.001 µM: compound concentration 1 nM
T2 construct: purchased BIO Vision Inc. 7529-50
Method: (Test Example 1): Human Enteropeptidase Inhibition Test
Human recombinant enteropeptidase (manufactured by BIO Vision Inc., catalog no.: 7529-50) was diluted with an assay buffer (50 mM tricine (pH8.0), 0.01 W/V % Tween 20, 10 mM CaCl2) to prepare an […] enzyme solution. Then, 5FAM-Abu-Gly-Asp-Asp-Lys-Ile-Val-Gly-Gly-Lys (CPQ2)-Lys-Lys-NH2 (manufactured by CHINESE PEPTIDE COMPANY, purity: 94.5) was diluted with the assay buffer to prepare a 1.5 μM substrate solution. Each test compound was dissolved into DMSO, then diluted with the assay buffer 100 times, and further appropriately diluted with an assay buffer comprising 1% DMSO to prepare each compound solution. 10 μL of the compound solution, 15 μL of the assay buffer, and 50 μL of the substrate solution were added to a 96 well black plate (manufactured by Thermo Fisher Scientific Inc., code no.: 9502867), mixed, then 25 μL of the enzyme solution was added thereto, and mixed to start the reaction. Fluorescence intensities at excitation wavelength 485 nm and fluorescence wavelength 535 nm were measured by using a fluorescence plate reader (Flex station 3) (Test compound addition group). Also, the same reaction as described above except for not adding each test compound was carried out (Test compound non-addition group). Additionally, the same reaction as described above except for not adding each test compound and the enzyme was carried out (Control group). Inhibition rate was calculated by the following equation using fluorescence intensity after 20 minutes of reaction start. Inhibition rate (%)=(1−(fluorescence intensity of Test compound addition group−fluorescence intensity of Control group)÷(fluorescence intensity of Test compound non-addition group−fluorescence intensity of Control group))×100

DIO mouse = test: Anti-obesity effect test using DIO mouse; format: in vivo; conditions: 336 h, DIO mice, vs vehicle group, read-out: Weight loss rate
Method: (Test Example 4): Anti-Obesity Effect Test Using DIO Mouse
Diet-induced obesity (DIO) mice (D-12492 diet, male, C57BL-DIO, 26 to 28-week old) were orally administered with a 0.5 W/V % methylcellulose suspension comprising each test compound (Compound administration group, 5 or 6 mice/group) or a 0.5 W/V % methylcellulose suspension (Compound non-administration group (Vehicle group), 6 mice/group) once daily for 2 weeks. Weight loss rate was calculated by the following equation. Weight loss rate (%) of each Compound administration group−(1−average weight at the last day of the test of each Compound administration group/average weight at the last day of the test of Vehicle group)×100

[3] = 20 minutes after reaction start
[4] = compound concentration 10 nM, 20 minutes after reaction start
[5] = compound concentration 100 nM, 20 minutes after reaction start

T2 sequence (P98073 whole entry): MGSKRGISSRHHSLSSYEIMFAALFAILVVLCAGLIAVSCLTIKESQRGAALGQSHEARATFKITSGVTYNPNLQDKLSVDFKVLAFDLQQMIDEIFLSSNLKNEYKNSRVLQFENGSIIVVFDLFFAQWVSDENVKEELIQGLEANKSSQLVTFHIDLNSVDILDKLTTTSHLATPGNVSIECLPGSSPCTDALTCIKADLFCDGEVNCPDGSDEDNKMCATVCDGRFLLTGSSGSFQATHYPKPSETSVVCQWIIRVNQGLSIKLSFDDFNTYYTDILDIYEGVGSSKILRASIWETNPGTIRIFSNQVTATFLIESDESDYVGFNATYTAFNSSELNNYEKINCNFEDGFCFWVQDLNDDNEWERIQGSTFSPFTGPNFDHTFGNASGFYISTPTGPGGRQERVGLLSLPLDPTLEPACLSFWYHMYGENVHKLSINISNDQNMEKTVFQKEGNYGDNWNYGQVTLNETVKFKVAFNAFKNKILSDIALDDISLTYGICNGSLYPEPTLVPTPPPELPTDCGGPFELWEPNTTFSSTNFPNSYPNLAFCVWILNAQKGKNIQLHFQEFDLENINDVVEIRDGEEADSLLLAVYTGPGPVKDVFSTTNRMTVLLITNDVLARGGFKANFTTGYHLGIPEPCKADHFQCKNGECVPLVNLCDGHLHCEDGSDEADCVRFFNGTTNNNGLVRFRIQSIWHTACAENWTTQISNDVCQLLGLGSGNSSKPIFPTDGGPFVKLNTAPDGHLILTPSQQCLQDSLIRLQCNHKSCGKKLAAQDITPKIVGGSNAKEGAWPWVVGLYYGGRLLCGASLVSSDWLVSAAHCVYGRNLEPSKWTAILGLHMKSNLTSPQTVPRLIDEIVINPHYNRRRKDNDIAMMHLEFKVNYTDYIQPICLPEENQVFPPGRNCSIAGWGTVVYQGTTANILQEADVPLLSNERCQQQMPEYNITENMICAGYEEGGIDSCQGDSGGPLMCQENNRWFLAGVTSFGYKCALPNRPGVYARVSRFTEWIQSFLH

| inhibition at 0.01 µM [1] [%] | inhibition at 0.1 µM [1] [%] | inhibition at 0.001 µM [1] [%] | inhibition at 0.001 µM [2, 3] [%] | inhibition at 0.01 µM [2, 4] [%] | inhibition at 0.1 µM [2, 5] [%] | SMILES | response vs control in vivo at 30 mg/kg (HFD-fed mouse) [%] | inhibition at 0.01 µM [2] [%] | inhibition at 0.1 µM [2] [%] | inhibition in vivo at 25 mg/kg (DIO mouse; oral 25 mg/kg once daily for 2 weeks) [%] | response vs control in vivo at 50 mg/kg (HFD-fed mouse; single oral dose 50 mg/kg) [%] | inhibition in vivo at 50 mg/kg (DIO mouse; oral 50 mg/kg once daily for 2 weeks) [%] | response vs control in vivo at 89 mg/kg (HFD-fed mouse; single oral dose 89 mg/kg) [%] | inhibition in vivo at 90 mg/kg (DIO mouse; oral 90 mg/kg once daily for 2 weeks) [%] | response vs control in vivo at 86 mg/kg (HFD-fed mouse; single oral dose 86 mg/kg) [%] |
| --- | --- | --- | --- | --- | --- | --- | --- | --- | --- | --- | --- | --- | --- | --- | --- |
| ≥ 50 | ≥ 50 | ≥ 50 | ≥ 50 | ≥ 50 | ≥ 50 | N=C(N)Nc1ccc2c(c1)CCCOc1c(cccc1C(=O)N(CCOCCOCCN(C(=O)c1cccc3c1OCCCc1cc(NC(=N)N)ccc1C(=O)O3)[C@@H](CC(=O)O)C(=O)O)[C@@H](CC(=O)O)C(=O)O)OC2=O [20-(b), (2S,13S)-3,12-bis(10-guanidino-13-oxo-6,7,8,13-tetrahydrodibenzo[b,f][1,4]dioxecin-4-carbonyl)-6,9-dioxa-3,12-diazatetradecane-1,2,13,14-tetracarboxylic acid trifluoroacetate] | ≥ 130 |  |  | ≥ 4 |  |  |  |  |  |
| ≥ 50 | ≥ 50 |  | ≥ 50 | ≥ 50 | ≥ 50 | N=C(N)Nc1ccc2c(c1)CCCOc1c(cccc1C(=O)N(CCOCCOCCOCCN(C(=O)c1cccc3c1OCCCc1cc(NC(=N)N)ccc1C(=O)O3)[C@@H](CC(=O)O)C(=O)O)[C@@H](CC(=O)O)C(=O)O)OC2=O [27-(b), (2S,165)-3,15-bis(10-guanidino-13-oxo-6,7,8,13-tetrahydrodibenzo[b,f][1,4]dioxecin-4-carbonyl)-6,9,12-trioxa-3,15-diazaheptadecane-1,2,16,17-tetracarboxylic acid] |  |  |  |  | ≥ 130 | ≥ 4 |  |  |  |
| ≥ 50 | ≥ 50 | ≥ 50 | ≥ 50 | ≥ 50 | ≥ 50 | N=C(N)Nc1ccc(C(=O)Oc2ccc(CNS(=O)(=O)N(CCOCCOCCOCCN([C@@H](CC(=O)O)C(=O)O)S(=O)(=O)NCc3ccc(OC(=O)c4ccc(NC(=N)N)cc4)cc3)[C@@H](CC(=O)O)C(=O)O)cc2)cc1 [3-(b), (2S,163)-3,15-bis(N-(4-((4-guanidinobenzoyl)oxy)benzyl)sulfamoyl)-6,9,12-trioxa-3,15-diazaheptadecane-1,2,16,17-tetracarboxylic acid trifluoroacetate] | ≥ 130 |  |  |  |  |  |  |  |  |
| ≥ 50 | ≥ 50 | ≥ 50 |  | ≥ 50 | ≥ 50 | N=C(N)Nc1ccc(C(=O)Oc2ccc(COC(=O)N(CC(=O)N[C@@H](CC(=O)O)C(=O)NCCOCCOCCOCCOCCNC(=O)[C@H](CC(=O)O)NC(=O)CN(Cc3cccc(C(=O)O)c3)C(=O)OCc3ccc(OC(=O)c4ccc(NC(=N)N)cc4)cc3)Cc3cccc(C(=O)O)c3)cc2)cc1 [14-(b), (3S,22S)-3,22-bis(2-((3-carboxybenzyl) (((4-((4-guanidinobenzoyl)oxy)benzyl)oxy)carbonyl)amino)acetamido)-4,21-dioxo-8,1,14,17-tetraoxa-5,20-diazatetracosane-1,24-dioic acid trifluoroacetate] |  |  |  |  |  |  | ≥ 130 | ≥ 4 |  |
| ≥ 50 | ≥ 50 | ≥ 50 | ≥ 50 | ≥ 50 | ≥ 50 | N=C(N)Nc1ccc(C(=O)Oc2ccc(CNS(=O)(=O)N(CCOCCOCCN([C@@H](CC(=O)O)C(=O)O)S(=O)(=O)NCc3ccc(OC(=O)c4ccc(NC(=N)N)cc4)cc3)[C@@H](CC(=O)O)C(=O)O)cc2)cc1 [2-(b), (2S,13S)-3,12-bis(N-(4-((4-guanidinobenzoyl)oxy)benzyl)sulfamoyl)-6,9-dioxa-3,12-diazatetradecane-1,2,13,14-tetracarboxylic acid trifluoroacetate] |  |  |  |  |  |  |  |  | ≥ 130 |
|  |  |  |  |  |  | N=C(N)Nc1ccc(C(=O)Oc2ccc(CNS(=O)(=O)N(CCCCN([C@@H](CC(=O)O)C(=O)O)S(=O)(=O)NCc3ccc(OC(=O)c4ccc(NC(=N)N)cc4)cc3)[C@@H](CC(=O)O)C(=O)O)cc2)cc1 [8-(c), (2S,2′S)-2,2′-(butane-1,4-diylbis((N-(4-((4-guanidinobenzoyl)oxy)benzyl)sulfamoyl)azanediyl))disuccinic acid hydrochloride] | ≥ 130 |  |  |  |  |  |  |  |  |

| SMILES | inhibition at 0.01 µM [1] [%] | inhibition at 0.1 µM [1] [%] | inhibition at 0.001 µM [1] [%] | inhibition at 0.001 µM [2, 3] [%] | inhibition at 0.01 µM [2, 4] [%] | inhibition at 0.1 µM [2, 5] [%] | response vs control in vivo at 30 mg/kg (HFD-fed mouse) [%] | inhibition at 0.01 µM [2] [%] | inhibition at 0.1 µM [2] [%] | inhibition in vivo at 25 mg/kg (DIO mouse; oral 25 mg/kg once daily for 2 weeks) [%] | response vs control in vivo at 50 mg/kg (HFD-fed mouse; single oral dose 50 mg/kg) [%] | inhibition in vivo at 50 mg/kg (DIO mouse; oral 50 mg/kg once daily for 2 weeks) [%] | response vs control in vivo at 89 mg/kg (HFD-fed mouse; single oral dose 89 mg/kg) [%] | inhibition in vivo at 90 mg/kg (DIO mouse; oral 90 mg/kg once daily for 2 weeks) [%] | response vs control in vivo at 86 mg/kg (HFD-fed mouse; single oral dose 86 mg/kg) [%] |
| --- | --- | --- | --- | --- | --- | --- | --- | --- | --- | --- | --- | --- | --- | --- | --- |
| N=C(N)Nc1ccc(C(=O)Oc2ccc(CNS(=O)(=O)N(CCOCCOCCOCCOCCOCCOCCN([C@@H](CC(=O)O)C(=O)O)S(=O)(=O)NCc3ccc(OC(=O)c4ccc(NC(=N)N)cc4)cc3)[C@@H](CC(=O)O)C(=O)O)cc2)cc1 [6-(b), (2S,25S)-3,24-bis(N-(4-((4-guanidinobenzoyl)oxy)benzyl)sulfamoyl)-6,9,12,15,18,21-hexaoxa-3,24-diazahexacosane-1,2,25,26-tetracarboxylic acid trifluoroacetate] | ≥ 50 | ≥ 50 |  |  |  |  | ≥ 130 | ≥ 50 | ≥ 50 |  |  |  |  |  |  |
| N=C(N)Nc1ccc(C(=O)Oc2ccc(CNS(=O)(=O)N(CCOCCOCCOCCOCCOCCN([C@@H](CC(=O)O)C(=O)O)S(=O)(=O)NCc3ccc(OC(=O)c4ccc(NC(=N)N)cc4)cc3)[C@@H](CC(=O)O)C(=O)O)cc2)cc1 [5-(b), (2S,22S)-3,21-bis(N-(4-((4-guanidinobenzoyl)oxy)benzyl)sulfamoyl)-6,9,12,15,18-pentaoxa-3,21-diazatricosane-1,2,22,23-tetracarboxylic acid trifluoroacetate] | ≥ 50 | ≥ 50 | ≥ 50 |  |  |  | ≥ 130 | ≥ 50 | ≥ 50 |  |  |  |  |  |  |
